Measurements as given in PubChem BioAssay (NCI).
“And” between values parts separate entries of the source, which are not always exact repeats. Identical values can stand only once.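 Protocol summary: plate cells (96-well), add compound at 5 concentrations, incubate 48 h, interpolate endpoints linearly. GI50 is the concentration that inhibits growth by half. TGI: total growth inhibition.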

Legend:
Assay in all cases: inhibition of tumour cell growth, NCI panel, 48 h
[1] = system: MDA-MB-231 breast
[2] = system: EKVX NSCLC
[3] = system: TK-10 renal
[4] = system: COLO 205 colon
[5] = system: MDA-N
[6] = system: NCI-H23 lung
[7] = system: CAKI-1 renal
[8] = system: SNB-75 CNS
[9] = system: SW-620 colon
[10] = system: HS 578T breast

Structure (SMILES): Cc1nc2c(=S)[nH]ncc2[nH]1
- TGI [1]: > 100 µM
- TGI [2]: > 100 µM
- TGI [3]: > 100 µM
- TGI [4]: > 100 µM
- TGI [5]: > 100 µM
- TGI [6]: > 100 µM
- TGI [7]: > 100 µM
- TGI [8]: > 100 µM
- TGI [9]: > 100 µM

Structure (SMILES): COc1cc(/C=C/C(=O)OCC23CC[C@@]4(C(=O)O)CCC(C)[C@H](C)C4C2=CCC2[C@@]4(C)CC[C@H](O)C(C)(C)C4CC[C@]23C)ccc1O (stereo partly drawn)
- TGI [1]: > 100 µM
- TGI [2]: 33.1 µM
- TGI [3]: 8.9 µM
- TGI [10]: 17.1 µM
- TGI [5]: 60.7 µM
- TGI [6]: 15.6 µM
- TGI [7]: > 100 µM
- TGI [9]: > 100 µM

Structure (SMILES): CC[n+]1cnc(N)c2c(-c3ccc(Cl)cc3)cn(-c3ccc(C)cc3)c21
- TGI [1]: 31.7 µM
- TGI [2]: 30.8 µM
- TGI [3]: 31.6 µM
- TGI [4]: 17.1 µM
- TGI [5]: 25 µM
- TGI [6]: 35.4 µM
- TGI [7]: 30.6 µM
- TGI [8]: 14.1 µM
- TGI [9]: 30.5 µM

Structure (SMILES): O=C(O)c1ccccc1.[Ag]
- TGI [2]: 55.4 µM
- TGI [3]: 19.6 µM
- TGI [10]: > 71.9 µM
- TGI [4]: 4.12 µM
- TGI [5]: 19.2 µM
- TGI [6]: 54.5 µM
- TGI [7]: 9.89 µM
- TGI [8]: 11.3 µM

Structure (SMILES): Cc1c2cc[nH]c(C(F)(F)F)c2cc2c1nc1ccccc12
- TGI [2]: > 125 µM
- TGI [4]: > 125 µM
- TGI [6]: > 125 µM
- TGI [7]: > 125 µM
- TGI [8]: 108 µM
- TGI [9]: > 125 µM

Structure (SMILES): C=C(C)[C@@]1(O)O[C@H]2C[C@@]3(C)OC(=CC3=O)/C(C)=C\[C@@H]3OC(=O)[C@@]1(C)[C@H]32
- TGI [1]: 43.9 µM
- TGI [2]: > 65.1 µM
- TGI [3]: 42.1 µM
- TGI [10]: > 100 µM
- TGI [4]: 35.3 µM
- TGI [6]: > 31.6 µM
- TGI [7]: 42.9 µM
- TGI [8]: 68.3 µM
- TGI [9]: 19.5 µM

Structure (SMILES): COc1cc2c(cc1OCCCN1CCN(CCCOc3cc4c(cc3OC)C(=O)N3CCC[C@H]3C=N4)CC1)C=CC(C)(C)O2
- GI50 [1]: 1310 nM
- TGI [1]: 2.58 µM
- GI50 [2]: 1360 nM
- TGI [2]: 2.75 µM
- GI50 [3]: 1460 nM
- TGI [3]: 2.87 µM
- GI50 [4]: 1210 nM
- TGI [4]: 2.61 µM
- GI50 [6]: 1.53 µM
- TGI [6]: 3.04 µM
- GI50 [7]: 827 nM
- TGI [7]: 2.12 µM
- GI50 [8]: 1260 nM
- TGI [8]: 2.74 µM
- GI50 [9]: 634 nM
- TGI [9]: 1.93 µM

Structure (SMILES): FC(F)(F)c1ccc(-c2nc(-c3nc4cc(Cl)c(Cl)cc4[nH]3)c3ccccn23)cc1
- GI50 [1]: 2490 nM
- TGI [1]: > 100 µM
- GI50 [3]: 8150 nM
- TGI [3]: > 100 µM
- GI50 [10]: 3.99 µM
- TGI [10]: > 100 µM
- GI50 [4]: > 100000 nM
- TGI [4]: > 100 µM
- GI50 [6]: 6.57 µM
- TGI [6]: > 100 µM
- GI50 [8]: 1450 nM
- TGI [8]: 4.3 µM
- GI50 [9]: > 100000 nM
- TGI [9]: > 100 µM

Structure (SMILES): CCC1(O)CC(OC2CC(N(C)C)C(OC3CC4OC5CC(=O)C(C)OC5OC4C(C)O3)C(C)O2)c2c(cc3c(c2O)C(=O)c2c(O)ccc(O)c2C3=O)C1C(=O)OC (stereo not drawn)
- GI50 [3]: 16.8 nM and 3.14 nM
- GI50 [7]: 2.51 nM and 7.63 nM

Structure (SMILES): COC(=O)C(=O)C(C(=O)Nc1cccc(C)c1C)C1Sc2ccccc2NC1=O (stereo not drawn)
- TGI [2]: > 25 µM
- TGI [3]: > 25 µM
- TGI [4]: > 25 µM
- TGI [6]: > 25 µM
- TGI [7]: > 25 µM
- TGI [8]: > 25 µM
- TGI [9]: > 25 µM

Structure (SMILES): O=C(Nc1cccc2ccccc12)Oc1ccccc1C1CCCCC1
- TGI [2]: 65.9 µM
- TGI [3]: 72.3 µM
- TGI [6]: 33.7 µM
- TGI [8]: 29.8 µM
- TGI [9]: 40 µM

Structure (SMILES): O=C(CSCC(=O)N/N=C/c1cc(I)cc(I)c1O)N/N=C/c1cc(I)cc(I)c1O
- TGI [1]: 25.1 µM
- TGI [2]: 79.2 µM
- TGI [3]: 31.6 µM
- TGI [10]: 39 µM
- TGI [4]: 63.8 µM
- TGI [6]: 25.3 µM
- TGI [7]: > 100 µM
- TGI [8]: 19.5 µM
- TGI [9]: > 100 µM

Structure (SMILES): Clc1ccc2c(SCC3CO3)c3ccccc3nc2c1 (stereo not drawn)
- TGI [1]: 6.64 µM
- TGI [2]: 20.4 µM
- TGI [3]: 3.35 µM
- TGI [4]: 10.7 µM
- TGI [6]: > 100 µM
- TGI [7]: 2.88 µM
- TGI [8]: 60.5 µM
- TGI [9]: 5.24 µM

Structure (SMILES): O=S(=O)(Oc1ccc2oc3ccccc3c2c1-c1c(OS(=O)(=O)C(F)(F)F)ccc2oc3ccccc3c12)C(F)(F)F
- TGI [1]: > 100 µM
- TGI [2]: > 100 µM
- TGI [3]: > 100 µM
- TGI [10]: > 100 µM
- TGI [4]: > 100 µM
- TGI [6]: > 100 µM
- TGI [7]: > 100 µM
- TGI [8]: > 100 µM
- TGI [9]: > 100 µM

Structure (SMILES): COc1cccc2c1OC1c3ccccc3OCC1C2 (stereo not drawn)
- TGI [1]: > 100 µM
- TGI [2]: > 100 µM
- TGI [3]: > 100 µM
- TGI [4]: > 100 µM
- TGI [5]: > 100 µM
- TGI [6]: > 100 µM
- TGI [7]: > 100 µM
- TGI [8]: 20.6 µM
- TGI [9]: > 100 µM

Structure (SMILES): c1csc(-c2ccc(-c3ccc(-c4ccc(-c5cccs5)s4)s3)s2)c1
- TGI [2]: > 100 µM
- TGI [3]: > 100 µM
- TGI [10]: > 100 µM
- TGI [4]: > 100 µM
- TGI [6]: > 100 µM
- TGI [7]: > 100 µM
- TGI [8]: > 100 µM
- TGI [9]: > 100 µM

Structure (SMILES): CCCCNC1CCC2(SCCS2)c2[nH]c3ccccc3c21 (stereo not drawn)
- TGI [1]: > 62.6 µM
- TGI [2]: > 100 µM
- TGI [3]: 45.1 µM
- TGI [10]: > 82.1 µM
- TGI [4]: > 62.3 µM
- TGI [6]: > 100 µM
- TGI [8]: > 100 µM
- TGI [9]: > 82.6 µM

Structure (SMILES): O=C1N[C@H]2c3c(Cl)sc(Cl)c3/C(=N/O)[C@H]2O1
- TGI [1]: > 100 µM
- TGI [2]: > 100 µM
- TGI [3]: > 100 µM
- TGI [4]: > 100 µM
- TGI [5]: > 100 µM
- TGI [7]: > 100 µM
- TGI [8]: > 100 µM
- TGI [9]: > 100 µM

Structure (SMILES): O=C(O)CCCl
- TGI [3]: > 5000 µM
- TGI [4]: > 5000 µM
- TGI [6]: > 5000 µM
- TGI [7]: > 5000 µM
- TGI [8]: > 5000 µM
- TGI [9]: > 5000 µM
